Source: PMC5418314, “First-in-human phase I study of SOR-C13, a TRPV6 calcium channel inhibitor, in patients with advanced solid tumors” (Investigational New Drugs, 2017)
Like-named read-outs stand apart in the source and are kept apart here. Ends that are not written are not given here.

What was measured:
[1] = test system: voltage-gated calcium channels; test: voltage-gated calcium channel activity; assay type: biochemical
[2] = peptide degradation in human plasma; assay type: in vitro ADME
[3] = half-life in the blood compartment, dog; assay type: in vivo
[4] = test system: voltage-gated potassium channels; test: voltage-gated potassium channel activity; assay type: biochemical
[5] = GLP toxicology study, daily IV bolus for 28 days, dog; assay type: in vivo, beagle dogs
Protocol: Anatomical pathology provided a No Observable Adverse Effect Level (NOAEL) of 200 mg/kg/day for rats. […] With results indicating antitumor activity in animal studies, a small toxicological footprint, a novel oncology target and a mechanism of action supported by the literature, SOR-C13 was formulated for intravenous injection (IV) for clinical evaluation. Here we present results of the ‘first-in-human’, Phase I clinical study evaluating SOR-C13 in adults with advanced solid tumors of epithelial origin refractory to all standard-of-care treatments.

[6] = Phase I ECG assessment; assay type: in vivo, human
Text: A Safety Monitoring Committee (SMC) oversaw the safety aspects of the study. Safety endpoints included: incidence of adverse events (AEs) and serious AEs (SAEs), withdrawals due to AEs, Dose Limiting Toxicities (DLTs), infusion reactions, deaths on study, vital signs, electrocardiogram (ECGs), clinical laboratory parameters and changes to the treatment regimen (dose delay, dose decrease) due to AEs. The National Cancer Institute (NCI) Common Terminology Criteria for Adverse Events (CTCAE) Version 4.0 was used to grade the severity of AEs.

[7] = peptide degradation in rat plasma; assay type: in vitro ADME
[8] = half-life in the blood compartment, rat; assay type: in vivo
[9] = Phase I plasma pharmacokinetics; assay type: in vivo, human; conditions: plasma LC-MS; for AUC(0-t) / Cmax / Tmax: plasma
Protocol: Blood samples were taken on Days 1, 3, 8 and 10 of Cycle 1 to assess the pharmacokinetic (PK) profile of SOR-C13 at the various doses used. Plasma samples for the IV 20 min infusion were taken at pre-infusion, 5, 15 min after the start of infusion and post-infusion at 2, 5, 10 and 30 min and 1, 4 h. Plasma samples for SOR-C13 analysis for the 90 min infusion were taken pre-infusion, at 5, 15 and 45 min after the start of infusion, and at 2, 5, 10 and 30 min post-infusion. Since the infusion for the majority of patients, and further studies will be IV 90 min only PK data for this infusion time are presented. Validated liquid chromatography-mass spectrometry analysis provided the plasma concentration/time data.

[10] = Cohort 3: 1.375 mg/kg, N = 3, 90-min IV infusion, Cycle 1 Day 8

Sequence: KEFLHPSKVDLPR [SOR-C13]
- modulation of channel activity [1]: no modulation of channel activity
- peptide degradation half-life [2]: about 1 h
- half-life in the blood compartment [3]: < 5 min
- modulation of channel activity [4]: no modulation of channel activity
- antigenicity [5]: no antigenicity
- cardiovascular toxicity [5]: no cardiovascular toxicity
- toxicity [5]: minimal toxicity
- mean changes in QTc intervals compared to pre-infusion values ([6]; 90-min infusions (N = 18), Cycle 1): −4.2 to +12.7 msec
- ECG abnormalities ([6]; during the study): No clinically significant ECG abnormalities
- QT or QTc prolongations above 500 msec ([6]; during the study): no QT or QTc prolongations above 500 msec
- QTc prolongation >60 msec compared to baseline or same-day pre-dose values ([6]; during the study): no patient experienced QTc prolongation >60 msec
- peptide degradation half-life [7]: about 1 h
- half-life in the blood compartment [8]: < 5 min
- time after start of infusion by which steady state was achieved ([9]; 90-min infusion): ≤ 15 min
- Peak plasma concentration, Median ([9]; Cohort 3: 1.375 mg/kg, N = 3, 90-min IV infusion, Cycle 1 Day 1): 252.50 ng/mL
- Peak plasma concentration, Mean (SD) [9, 10]: 251.03 (75.53) ng/mL
- Time to peak plasma concentration, Median [9, 10]: 0.750 h
- Time to peak plasma concentration, Median ([9]; Cohort 4: 2.75 mg/kg, N = 6, 90-min IV infusion, Cycle 1 Day 3): 0.750 h
- Time to peak plasma concentration, Median ([9]; Cohort 5: 4.13 mg/kg, N = 3, 90-min IV infusion, Cycle 1 Day 10): 0.250 h
- Time to peak plasma concentration, Median ([9]; Cohort 6: 6.2 mg/kg, N = 6, 90-min IV infusion, Cycle 1 Day 8): 0.750 h
- half-life ([9]; human, iv, patients, 90-min infusion, read-out: elimination half-life (Thalf), estimated overall): < 5 min
- AUC(0-t) ([9]; human, iv, 1.375 mg/kg, Cohort 3: 1.375 mg/kg, N = 3, 90-min IV infusion, Cycle 1 Day 1, read-out: AUCtau, Mean (SD)): 256 ng·h/mL
- AUC(0-t) ([9]; human, iv, 1.375 mg/kg, Cohort 3: 1.375 mg/kg, N = 3, 90-min IV infusion, Cycle 1 Day 1, read-out: AUCtau, Median): 263 ng·h/mL
- Cmax ([9]; human, iv, 1.375 mg/kg, Cohort 3: 1.375 mg/kg, N = 3, 90-min IV infusion, Cycle 1 Day 1, read-out: Peak plasma concentration, Mean (SD)): 244 ng/mL
- Tmax ([9]; human, iv, 1.375 mg/kg, Cohort 3: 1.375 mg/kg, N = 3, 90-min IV infusion, Cycle 1 Day 1, read-out: Time to peak plasma concentration, Mean (SD)): 31.6 min
- Tmax ([9]; human, iv, 1.375 mg/kg, Cohort 3: 1.375 mg/kg, N = 3, 90-min IV infusion, Cycle 1 Day 1, read-out: Time to peak plasma concentration, Median): 45 min
- AUC(0-t) ([9]; human, iv, 1.375 mg/kg, Cohort 3: 1.375 mg/kg, N = 3, 90-min IV infusion, Cycle 1 Day 3, read-out: AUCtau, Mean (SD)): 148 ng·h/mL
- AUC(0-t) ([9]; human, iv, 1.375 mg/kg, Cohort 3: 1.375 mg/kg, N = 3, 90-min IV infusion, Cycle 1 Day 3, read-out: AUCtau, Median): 168 ng·h/mL
- Cmax ([9]; human, iv, 1.375 mg/kg, Cohort 3: 1.375 mg/kg, N = 3, 90-min IV infusion, Cycle 1 Day 3, read-out: Peak plasma concentration, Mean (SD)): 193 ng/mL
- Cmax ([9]; human, iv, 1.375 mg/kg, Cohort 3: 1.375 mg/kg, N = 3, 90-min IV infusion, Cycle 1 Day 3, read-out: Peak plasma concentration, Median): 160 ng/mL
- Tmax ([9]; human, iv, 1.375 mg/kg, Cohort 3: 1.375 mg/kg, N = 3, 90-min IV infusion, Cycle 1 Day 3, read-out: Time to peak plasma concentration, Mean (SD)): 11.6 min
- Tmax ([9]; human, iv, 1.375 mg/kg, Cohort 3: 1.375 mg/kg, N = 3, 90-min IV infusion, Cycle 1 Day 3, read-out: Time to peak plasma concentration, Median): 15 min
- AUC(0-t) ([9]; human, iv, 1.375 mg/kg, Cohort 3: 1.375 mg/kg, N = 3, 90-min IV infusion, Cycle 1 Day 8, read-out: AUCtau, Mean (SD)): 220 ng·h/mL
- AUC(0-t) ([9]; human, iv, 1.375 mg/kg, Cohort 3: 1.375 mg/kg, N = 3, 90-min IV infusion, Cycle 1 Day 8, read-out: AUCtau, Median): 230 ng·h/mL
- Cmax ([9]; human, iv, 1.375 mg/kg, Cohort 3: 1.375 mg/kg, N = 3, 90-min IV infusion, Cycle 1 Day 8, read-out: Peak plasma concentration, Median): 237 ng/mL
- Tmax ([9]; human, iv, 1.375 mg/kg, Cohort 3: 1.375 mg/kg, N = 3, 90-min IV infusion, Cycle 1 Day 8, read-out: Time to peak plasma concentration, Mean (SD)): 47.2 min
- AUC(0-t) ([9]; human, iv, 1.375 mg/kg, Cohort 3: 1.375 mg/kg, N = 3, 90-min IV infusion, Cycle 1 Day 10, read-out: AUCtau, Mean (SD)): 184 ng·h/mL
- AUC(0-t) ([9]; human, iv, 1.375 mg/kg, Cohort 3: 1.375 mg/kg, N = 3, 90-min IV infusion, Cycle 1 Day 10, read-out: AUCtau, Median): 215 ng·h/mL
- Cmax ([9]; human, iv, 1.375 mg/kg, Cohort 3: 1.375 mg/kg, N = 3, 90-min IV infusion, Cycle 1 Day 10, read-out: Peak plasma concentration, Mean (SD)): 224 ng/mL
- Cmax ([9]; human, iv, 1.375 mg/kg, Cohort 3: 1.375 mg/kg, N = 3, 90-min IV infusion, Cycle 1 Day 10, read-out: Peak plasma concentration, Median): 181 ng/mL
- Tmax ([9]; human, iv, 1.375 mg/kg, Cohort 3: 1.375 mg/kg, N = 3, 90-min IV infusion, Cycle 1 Day 10, read-out: Time to peak plasma concentration, Mean (SD)): 35 min
- AUC(0-t) ([9]; human, iv, 2.75 mg/kg, Cohort 4: 2.75 mg/kg, N = 6, 90-min IV infusion, Cycle 1 Day 1, read-out: AUCtau, Mean (SD)): 435 ng·h/mL
- AUC(0-t) ([9]; human, iv, 2.75 mg/kg, Cohort 4: 2.75 mg/kg, N = 6, 90-min IV infusion, Cycle 1 Day 1, read-out: AUCtau, Median): 103 ng·h/mL
- Cmax ([9]; human, iv, 2.75 mg/kg, Cohort 4: 2.75 mg/kg, N = 6, 90-min IV infusion, Cycle 1 Day 1, read-out: Peak plasma concentration, Mean (SD)): 524 ng/mL
- Cmax ([9]; human, iv, 2.75 mg/kg, Cohort 4: 2.75 mg/kg, N = 6, 90-min IV infusion, Cycle 1 Day 1, read-out: Peak plasma concentration, Median): 194 ng/mL
- Tmax ([9]; human, iv, 2.75 mg/kg, Cohort 4: 2.75 mg/kg, N = 6, 90-min IV infusion, Cycle 1 Day 1, read-out: Time to peak plasma concentration, Mean (SD)): 39.9 min
- Tmax ([9]; human, iv, 2.75 mg/kg, Cohort 4: 2.75 mg/kg, N = 6, 90-min IV infusion, Cycle 1 Day 1, read-out: Time to peak plasma concentration, Median): 45 min
- AUC(0-t) ([9]; human, iv, 2.75 mg/kg, Cohort 4: 2.75 mg/kg, N = 6, 90-min IV infusion, Cycle 1 Day 3, read-out: AUCtau, Mean (SD)): 365 ng·h/mL
- AUC(0-t) ([9]; human, iv, 2.75 mg/kg, Cohort 4: 2.75 mg/kg, N = 6, 90-min IV infusion, Cycle 1 Day 3, read-out: AUCtau, Median): 250 ng·h/mL
- Cmax ([9]; human, iv, 2.75 mg/kg, Cohort 4: 2.75 mg/kg, N = 6, 90-min IV infusion, Cycle 1 Day 3, read-out: Peak plasma concentration, Mean (SD)): 374 ng/mL
- Cmax ([9]; human, iv, 2.75 mg/kg, Cohort 4: 2.75 mg/kg, N = 6, 90-min IV infusion, Cycle 1 Day 3, read-out: Peak plasma concentration, Median): 265 ng/mL
- Tmax ([9]; human, iv, 2.75 mg/kg, Cohort 4: 2.75 mg/kg, N = 6, 90-min IV infusion, Cycle 1 Day 3, read-out: Time to peak plasma concentration, Mean (SD)): 40.3 min
- AUC(0-t) ([9]; human, iv, 2.75 mg/kg, Cohort 4: 2.75 mg/kg, N = 6, 90-min IV infusion, Cycle 1 Day 8, read-out: AUCtau, Mean (SD)): 215 ng·h/mL
- AUC(0-t) ([9]; human, iv, 2.75 mg/kg, Cohort 4: 2.75 mg/kg, N = 6, 90-min IV infusion, Cycle 1 Day 8, read-out: AUCtau, Median): 247 ng·h/mL
- Cmax ([9]; human, iv, 2.75 mg/kg, Cohort 4: 2.75 mg/kg, N = 6, 90-min IV infusion, Cycle 1 Day 8, read-out: Peak plasma concentration, Mean (SD)): 239 ng/mL
